The supplement of paper PMC10307832

Assays:
Assay in all cases: relative viability (nuclei count vs DMSO), 5 days (fraction); higher = more cells survive
A-427 = tested on: A-427
Outline: (§1)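 A single step with final 0.05% Triton X-100, 1% formaldehyde and 1 ug/ml Hoechst fixed the cells and stained nuclei 5 days after treatment. Lung cancer cell lines in 1536-well plates had been treated by pin tool the day after seeding with one drug alone or a fixed anchor-drug dose plus five library-drug doses (not always all listed) in √10 steps, and nuclei were counted on 4× images. Relative viability is the ratio of nuclei in treated wells to nuclei in vehicle wells, taken as the median of duplicate plates.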

CAL-12T = tested on: CAL-12T
Outline: as §1

COR-L 105 = tested on: COR-L 105
Outline: as §1

EPLC-272H = tested on: EPLC-272H
Outline: as §1

HCC-15 = tested on: HCC-15
Outline: as §1

LC-2-ad = tested on: LC-2-ad
Outline: as §1

LCLC-97TM1 = tested on: LCLC-97TM1
Outline: as §1

NCI-H1395 = tested on: NCI-H1395
Outline: as §1

NCI-H1563 = tested on: NCI-H1563
Outline: as §1

NCI-H1734 = tested on: NCI-H1734
Outline: as §1

NCI-H1915 = tested on: NCI-H1915
Outline: as §1

NCI-H1975 = tested on: NCI-H1975
Outline: as §1

NCI-H2023 = tested on: NCI-H2023
Outline: as §1

NCI-H2342 = tested on: NCI-H2342
Outline: as §1

NCI-H2347 = tested on: NCI-H2347
Outline: as §1

NCI-H2405 = tested on: NCI-H2405
Outline: as §1

NCI-H520 = tested on: NCI-H520
Outline: as §1

NCI-H838 = tested on: NCI-H838
Outline: as §1

SW 1573 = tested on: SW 1573
Outline: as §1

SW 900 = tested on: SW 900
Outline: as §1

UMC-11 = tested on: UMC-11
Outline: as §1

With `CCNC(=O)c1noc(-c2cc(C(C)C)c(O)cc2O)c1-c1ccc(CN2CCOCC2)cc1` [Luminespib] + COc1cc2c(Oc3ccc(NC(=O)C4(C(=O)Nc5ccc(F)cc5)CC4)cc3F)ccnc2cc1OCCCN1CCOCC1 [Foretinib] (partner 0.25 µM) the relative viability (A-427; first compound 0.002 µM) was 1.14, the relative viability (A-427; first compound 0.006325 µM) was 0.969 and the relative viability (A-427; first compound 0.02 µM) was 0.84. The relative viability (A-427; first compound 0.06325 µM) was 1.06, the relative viability (A-427; first compound 0.2 µM) was 1.1 and the relative viability (CAL-12T; first compound 0.002 µM) was 1.25. For the same compound, the relative viability (CAL-12T; first compound 0.006325 µM) was 1.15, the relative viability (CAL-12T; first compound 0.02 µM) was 0.824 and the relative viability (CAL-12T; first compound 0.06325 µM) was 0.127. It also gave a relative viability (CAL-12T; first compound 0.2 µM) of 0.128, a relative viability (COR-L 105; first compound 0.002 µM) of 0.885 and a relative viability (COR-L 105; first compound 0.006325 µM) of 1.04. It also gave a relative viability (COR-L 105; first compound 0.02 µM) of 1.07, a relative viability (COR-L 105; first compound 0.06325 µM) of 0.436 and a relative viability (COR-L 105; first compound 0.2 µM) of 0.273. The relative viability (EPLC-272H; first compound 0.002 µM) was 0.74, the relative viability (EPLC-272H; first compound 0.006325 µM) was 0.666 and the relative viability (EPLC-272H; first compound 0.06325 µM) was 0.625. It also gave a relative viability (EPLC-272H; first compound 0.2 µM) of 0.0989, a relative viability (HCC-15; first compound 0.002 µM) of 1.09 and a relative viability (HCC-15; first compound 0.006325 µM) of 0.971. For the same compound, the relative viability (HCC-15; first compound 0.02 µM) was 1.07, the relative viability (HCC-15; first compound 0.06325 µM) was 0.151 and the relative viability (HCC-15; first compound 0.2 µM) was 0.126. It also gave a relative viability (LC-2-ad; first compound 0.002 µM) of 1.02, a relative viability (LC-2-ad; first compound 0.006325 µM) of 0.928 and a relative viability (LC-2-ad; first compound 0.02 µM) of 0.834. The relative viability (LC-2-ad; first compound 0.06325 µM) was 0.321, the relative viability (LC-2-ad; first compound 0.2 µM) was 0.25 and the relative viability (LCLC-97TM1; first compound 0.002 µM) was 0.949. It also gave a relative viability (LCLC-97TM1; first compound 0.006325 µM) of 0.915, a relative viability (LCLC-97TM1; first compound 0.02 µM) of 0.935 and a relative viability (LCLC-97TM1; first compound 0.06325 µM) of 0.952. For the same compound, the relative viability (LCLC-97TM1; first compound 0.2 µM) was 0.626, the relative viability (NCI-H1395; first compound 0.002 µM) was 1.04 and the relative viability (NCI-H1395; first compound 0.006325 µM) was 0.941. It also gave a relative viability (NCI-H1395; first compound 0.02 µM) of 0.805, a relative viability (NCI-H1395; first compound 0.06325 µM) of 0.568 and a relative viability (NCI-H1395; first compound 0.2 µM) of 0.345. It also gave a relative viability (NCI-H1563; first compound 0.002 µM) of 1.01, a relative viability (NCI-H1563; first compound 0.006325 µM) of 0.831 and a relative viability (NCI-H1563; first compound 0.02 µM) of 0.875. The relative viability (NCI-H1563; first compound 0.06325 µM) was 0.452, the relative viability (NCI-H1563; first compound 0.2 µM) was 0.537 and the relative viability (NCI-H1734; first compound 0.002 µM) was 0.9. It also gave a relative viability (NCI-H1734; first compound 0.006325 µM) of 0.915, a relative viability (NCI-H1734; first compound 0.02 µM) of 0.697 and a relative viability (NCI-H1734; first compound 0.06325 µM) of 0.175. The relative viability (NCI-H1734; first compound 0.2 µM) was 0.171, the relative viability (NCI-H1915; first compound 0.002 µM) was 1.13 and the relative viability (NCI-H1915; first compound 0.006325 µM) was 1.04. The relative viability (NCI-H1915; first compound 0.02 µM) was 1.02, the relative viability (NCI-H1915; first compound 0.06325 µM) was 1.05 and the relative viability (NCI-H1915; first compound 0.2 µM) was 0.826. The relative viability (NCI-H1975; first compound 0.002 µM) was 1.07, the relative viability (NCI-H1975; first compound 0.006325 µM) was 0.97 and the relative viability (NCI-H1975; first compound 0.02 µM) was 0.615. The relative viability (NCI-H1975; first compound 0.06325 µM) was 0.0994, the relative viability (NCI-H1975; first compound 0.2 µM) was 0.108 and the relative viability (NCI-H2023; first compound 0.002 µM) was 0.739. For the same compound, the relative viability (NCI-H2023; first compound 0.006325 µM) was 0.884, the relative viability (NCI-H2023; first compound 0.02 µM) was 0.438 and the relative viability (NCI-H2023; first compound 0.06325 µM) was 0.123. For the same compound, the relative viability (NCI-H2023; first compound 0.2 µM) was 0.0586, the relative viability (NCI-H2342; first compound 0.002 µM) was 1.02 and the relative viability (NCI-H2342; first compound 0.006325 µM) was 0.991. For the same compound, the relative viability (NCI-H2342; first compound 0.02 µM) was 0.656, the relative viability (NCI-H2342; first compound 0.06325 µM) was 0.786 and the relative viability (NCI-H2342; first compound 0.2 µM) was 0.543. For the same compound, the relative viability (NCI-H2347; first compound 0.002 µM) was 0.987, the relative viability (NCI-H2347; first compound 0.006325 µM) was 0.64 and the relative viability (NCI-H2347; first compound 0.02 µM) was 0.59. The relative viability (NCI-H2347; first compound 0.06325 µM) was 0.922, the relative viability (NCI-H2347; first compound 0.2 µM) was 0.376 and the relative viability (NCI-H2405; first compound 0.002 µM) was 1.08. For the same compound, the relative viability (NCI-H2405; first compound 0.006325 µM) was 0.852, the relative viability (NCI-H2405; first compound 0.02 µM) was 1 and the relative viability (NCI-H2405; first compound 0.06325 µM) was 0.227. For the same compound, the relative viability (NCI-H2405; first compound 0.2 µM) was 0.2, the relative viability (NCI-H520; first compound 0.002 µM) was 1.09 and the relative viability (NCI-H520; first compound 0.006325 µM) was 0.659. The relative viability (NCI-H520; first compound 0.02 µM) was 0.651, the relative viability (NCI-H520; first compound 0.06325 µM) was 0.147 and the relative viability (NCI-H520; first compound 0.2 µM) was 0.162. The relative viability (NCI-H838; first compound 0.002 µM) was 1.08, the relative viability (NCI-H838; first compound 0.006325 µM) was 1.06 and the relative viability (NCI-H838; first compound 0.02 µM) was 1.07. It also gave a relative viability (NCI-H838; first compound 0.06325 µM) of 0.582, a relative viability (NCI-H838; first compound 0.2 µM) of 0.148 and a relative viability (SW 1573; first compound 0.002 µM) of 0.91. For the same compound, the relative viability (SW 1573; first compound 0.006325 µM) was 0.766, the relative viability (SW 1573; first compound 0.02 µM) was 0.521 and the relative viability (SW 1573; first compound 0.06325 µM) was 0.148. The relative viability (SW 1573; first compound 0.2 µM) was 0.119, the relative viability (SW 900; first compound 0.002 µM) was 0.966 and the relative viability (SW 900; first compound 0.006325 µM) was 0.742. The relative viability (SW 900; first compound 0.02 µM) was 0.813, the relative viability (SW 900; first compound 0.06325 µM) was 0.134 and the relative viability (SW 900; first compound 0.2 µM) was 0.117. The relative viability (UMC-11; first compound 0.002 µM) was 1.14, the relative viability (UMC-11; first compound 0.006325 µM) was 0.982 and the relative viability (UMC-11; first compound 0.02 µM) was 0.816. The relative viability (UMC-11; first compound 0.06325 µM) was 0.561 and the relative viability (UMC-11; first compound 0.2 µM) was 0.169.
